Measurements reported in patent US7311893B2, “Amyloid targeting imaging agents and uses thereof” (Neurochem (International) Limited, priority 2000, dated 2007).

Tested on: insoluble amyloid or amyloid plaques
Experiment: binding data for amyloid-targeting moieties (FIGS. 1 and 2)
Conditions: insoluble vs soluble amyloid; data in FIGS. 1 and 2

| Compound | binding to insoluble amyloid or amyloid plaques in preference to soluble amyloid |
| --- | --- |
| 1,6-hexanedisulfonate | bind insoluble amyloid or amyloid plaques in preference to soluble amyloid |
| O=S(=O)(O)CCCN1CCN(CCCS(=O)(=O)O)CC1 [1,4-piperazinebis(propanesulfonic acid)] | bind insoluble amyloid or amyloid plaques in preference to soluble amyloid |
| O=S(=O)(O)CCCNC1(CO)CCCC1 [3-(1-hydroxymethyl-1-cyclopentyl)amino-1-propane sulfonic acid] | bind insoluble amyloid or amyloid plaques in preference to soluble amyloid |
| O=S(=O)(O)CCCNCCCCCCO [3-(6-hydroxy-1-hexyl)amino-1-propane sulfonic acid] | bind insoluble amyloid or amyloid plaques in preference to soluble amyloid |
| O=S(=O)(O)CCCN1CC=CCC1 [3-[1-(1,2,3,6-tetrahydropyridinyl)]-1-propanesulfonic acid] | bind insoluble amyloid or amyloid plaques in preference to soluble amyloid |
| O=S(=O)(O)NCCCO [3-hydroxypropylsulfamic acid] | bind insoluble amyloid or amyloid plaques in preference to soluble amyloid |
| O=S(=O)(O)CCCCN1CCCCC1 [4-(1-piperidinyl)-1-butanesulfonic acid] | bind insoluble amyloid or amyloid plaques in preference to soluble amyloid |
| Cc1ccc2nc(-c3ccc(N=NNc4ccc(-c5nc6ccc(C)c(S(=O)(=O)[O-])c6s5)cc4)cc3)sc2c1S(=O)(=O)[O-].[Na+].[Na+] [Thiazole yellow G, reference compound] | bind insoluble amyloid or amyloid plaques in preference to soluble amyloid |
| NCCCC[C@H](NCCCS(=O)(=O)O)C(=O)O [alpha-N-(3-sulfopropyl)-L-lysine] | bind insoluble amyloid or amyloid plaques in preference to soluble amyloid |
| COC(=O)CCN1CCc2ccccc2C1.Cl [methyl 2-(2-carboxyethyl)-1,2,3,4-tetrahydroisoquinoline hydrochloride] | bind insoluble amyloid or amyloid plaques in preference to soluble amyloid |
